Inconclusive results are not listed. Active and inactive are the calls of the source.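 Rule for the calls: active = Green signal of the normal strain falls at least twice as much as red signal of the resistant mutant, with overall culture growth loss under a set limit; inconclusive = no clear call, values can overlap the other calls; inactive = the rest.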
Test system: E. coli WT ribosome GFP fluorescence, mixed culture, 24 h
Assay: wild-type E. coli growth inhibition versus h38 humanized strain – h38 mutant RFP, wild-type GFP, cherry-pick, dose response (AID 977622)
[1] = E. coli mixed culture, 24 h, measured here: total growth OD600

Structure (SMILES) | AC50 | AC50 [1]
O=[N+]([O-])c1ccc(N2CCOCC2)c2c1no[n+]2[O-] | > 100 µM (inactive) | > 100 µM
CSc1c(-c2ccccn2)c(N)nn1C(=O)C1CC1 | > 100 µM (inactive) | 
CN(C)C(CNS(=O)(=O)c1cc([N+](=O)[O-])ccc1Cl)c1ccco1 (centres undefined) | > 100 µM (inactive) | > 100 µM
COc1ccccc1CNC(=O)CN1C(=O)NC(c2ccccc2)(c2ccccc2)C1=O | > 100 µM (inactive) | 
COc1cc2c(c(OC)c1OC)C(c1ccc3c(c1)OCO3)CC(=O)O2 (centres undefined) |  | > 100 µM
COC(=O)CN1C(=S)N(c2ccc(Cl)cc2)C(=O)C1CC(=O)Nc1ccc(F)cc1 (centres undefined) | > 100 µM (inactive) | 
O=C(Nc1ccn(Cc2ccc(Cl)cc2)n1)c1ccccc1 |  | > 100 µM
CS(=O)(=O)N1CC2CCCN2c2ccc(C(F)(F)F)cc21 (centres undefined) |  | > 100 µM
CCCCc1ccc(S(=O)(=O)Nc2ccc(C)c(NS(C)(=O)=O)c2)cc1 | > 100 µM (inactive) | 51.4 µM
CCOC(=O)C1CCCN(C(=O)c2csc(-c3ccc4c(c3)CCO4)n2)C1 (centres undefined) | > 100 µM (inactive) | 
O=C(O)c1ccc(-c2nc(-c3ccccc3)cs2)cc1 | > 100 µM (inactive) | 
Cc1cc(C(=O)OCC(=O)Nc2cccc(S(N)(=O)=O)c2)c2ccccc2n1 | > 100 µM (inactive) | > 100 µM
COc1ccccc1CN1Cc2ccccc2Oc2ccccc2S1(=O)=O | > 100 µM (inactive) | 
C[C@@H]1CN([C@H](C)CO)C(=O)c2cccc(NC(=O)c3ccncc3)c2O[C@@H]1CN(C)S(=O)(=O)c1ccc(Cl)cc1 | > 100 µM (inactive) | 
Cc1nn2c(NCc3ccccn3)cc(C(C)C)nc2c1-c1ccccc1 | > 100 µM (inactive) | 
COc1ccc(NC(=O)Nc2cccc3c2O[C@H](CN(C)S(=O)(=O)c2ccc(Cl)cc2)[C@H](C)CN([C@H](C)CO)C3=O)cc1 | > 100 µM (inactive) | 44.2 µM
O=C(C[C@@H]1CC[C@H]2[C@@H](COC[C@H](O)CN2C(=O)Nc2cc(Cl)cc(Cl)c2)O1)N1CCOCC1 | > 100 µM (inactive) | 
COc1ccc(-c2ccccc2)cc1NC(=O)c1ccncc1 | > 100 µM (inactive) | 

Structure (SMILES) | AC50 | AC50 [1]
COc1cccc(NC(=O)N(C)C[C@H]2Oc3ncc(C#Cc4cccnc4)cc3C(=O)N([C@H](C)CO)C[C@H]2C)c1 |  | > 100 µM
NS(=O)(=O)c1cccc(NC(=O)COc2ncnc3c2cnn3-c2ccccc2)c1 | > 100 µM (inactive) | 
Cc1cccc(Oc2ccc(NC(=O)c3ccccc3C(=O)O)cc2)c1 |  | > 100 µM
O=C(Nc1cccc(Cl)c1)N1C[C@@H]2[C@H](c3ccccc31)[C@H](CO)N2Cc1ccncc1 |  | > 100 µM
c1ccc(-c2nc3c4ccccc4ccn3c2CN2CCOCC2)cc1 | > 100 µM (inactive) | 
Cc1c(Cc2ccc3c(c2)OCO3)sc(NC(=O)C2CC2)c1C(N)=O | > 100 µM (inactive) | 34.7 µM
Cc1ccc(S(=O)(=O)NCc2c(-c3ccccc3)noc2C)cc1 | > 100 µM (inactive) | 
COc1ccc(CC(=O)Nc2nc(-c3cc(OC)ccc3OC)cs2)cc1 | > 100 µM (inactive) | 8.91 µM
COC(=O)c1c(C)oc(C)c1S(=O)(=O)NC(c1ccccc1)c1ccccc1 | > 100 µM (inactive) | 35.7 µM
O=[N+]([O-])c1ccccc1CN1CCN(S(=O)(=O)c2ccccc2)CC1 | > 100 µM (inactive) | 
O=C(C[n+]1cc(-c2ccc(Cl)c(Cl)c2)n2c1CCC2)OCc1ccccc1 | > 100 µM (inactive) | 
Cc1ccc(S(=O)(=O)Nc2ccccc2CNc2cccc(C)n2)cc1 |  | > 100 µM
Cc1cc(NC(=O)c2cccc(Oc3ccccc3)c2)n[nH]1 | > 100 µM (inactive) | 40.6 µM
CCSc1nc2ccccc2c(=O)n1Cc1ccc(F)cc1 | > 100 µM (inactive) | 
COc1ccc(C#Cc2ccc([C@H]3[C@@H](CO)N4CCCCN(C(=O)Nc5cccc(F)c5)C[C@H]34)cc2)cc1 |  | > 100 µM
COc1ccccc1NS(=O)(=O)c1cc(C(=O)Nc2ccc(S(=O)(=O)Nc3onc(C)c3C)cc2)ccc1C | > 100 µM (inactive) | 
CCC(C)c1ccccc1NC(=O)c1cccc(-n2cnnn2)c1 (centres undefined) |  | > 100 µM

— PubChem BioAssay AID977622 (Broad Institute, 2014)
